# Data published in US12377076B2, “Compounds for treating lymphoma or a T-cell malignant disease” (Purdue Pharma L.P., priority 2018, dated 2025).
# Where “and” joins values, the source holds several entries; their conditions need not be identical. Equal values may be shown once. Read-outs that look alike come from different tables or passages of the source.
# Key:
# Assay type in all cases: in vivo, human
# [1] = tested on: patients with HL; assay: Tumour assessment: response to treatment, patients with HL
# Text: (§1) Response to treatment included evaluation of overall response rate (patients with a CR plus patients with a PR), clinical benefit (CB) rate (patients with CR plus patients with PR plus patients with stable disease (SD)), progression free survival, and overall survival according to the relevant response criteria.
# [2] = tested on: patients with lymphoma; assay: Tumour assessment: response to treatment, patients with lymphoma
# Text: as §1
# [3] = tested on: patients with relapsed/refractory hematologic malignancies; assay: Tumour assessment: response to treatment, all HM; details: all 46 patients
# Text: as §1
# [4] = tested on: lymphocytes; assay: PK/PD safety modelling: dose-nadir relationship of blood cell counts, lymphocytes; details: (% CV) in table
# Text: (§2) The obtained exposure parameters (Cmax and AUC) and PK profiles from individual patients and the respective haematological laboratory data were collected over the treatment duration and analysed regarding the relationship to peripheral blood cell counts (lymphocytes, neutrophils, platelets).
# (§3) The nadir was defined as the lowest blood cell count observed after the first administration. The nadir was extracted irrespective of the treatment duration, thus, the analysis data set included patients who received only one dose and patients who received multiple treatment cycles with tinostamustine. The baseline blood cell count, which was the count before the first administration, was included in the analysis as the cell count at dose, Cmax or AUC equal to 0. Thus, it was assumed that the baseline blood cell count was the effect level without treatment with tinostamustine. With an exploratory analysis all observations each predictor-nadir relationship was fitted with a least-squares method in R. The dose-nadir relationship was further investigated with a non-linear mixed effects approach. The advantage of the non-linear mixed effects approach compared to the exploratory analysis was that different external and patient factors could be investigated at the same time and the between patient variability can be described. […]
# [5] = tested on: patients with MM; assay: Tumour assessment: response to treatment, patients with multiple myeloma; details: 19 patients with MM
# Text: as §1
# [6] = tested on: platelets; assay: PK/PD safety modelling: dose-nadir relationship of blood cell counts, platelets; details: (% CV) in table
# Text: as §2, §3
# [7] = tested on: neutrophils; assay: PK/PD safety modelling: dose-nadir relationship of blood cell counts, neutrophils; details: (% CV) in table
# Text: as §2, §3
# [8] = PK assessment: plasma tinostamustine and metabolites M2 and M8, non-compartmental analysis and population PK model; details: for AUC / Cmax / Tmax: day one, Mean (SD)
# Procedure: Plasma samples were collected to determine the concentrations of tinostamustine and its metabolites (labelled M2 and M8) by a method fully validated according to the relevant guidelines. The PK profiles of tinostamustine in plasma were assessed in each patient in the escalation stage of the study, in cycle 1 only.
# Patients of all cohorts and over all dose levels were sampled according to the following schedule: 0.5 hours prior to dose administration, and at 15, 30 and 45 minutes and 1, 1.25, 1.50, 2, 3, 8, 24, 48 and 72 hours from the start of tinostamustine infusion. Plasma samples were collected according to the Laboratory Manual for the determination of tinostamustine and metabolites M2 and M8 concentrations using a method fully validated according to the relevant guidelines.
# A compartmental population PK analysis of tinostamustine was conducted to characterize its concentration-time profiles and its dependency on patient factors. For the analysis, the 24 hours plasma concentrations of tinostamustine at day one from 36 patients was used from whom the data was available. The concentration-time profiles were best described with a two-compartmental model with first order clearance from the central compartment.
# [9] = human, plasma, intravenous, 20 mg/m^2, 20 mg/m^2, infusion 60 minutes
# [10] = human, plasma, intravenous, 40 mg/m^2, 40 mg/m^2, infusion 60 minutes
# [11] = human, plasma, intravenous, 60 mg/m^2, 60 mg/m^2, infusion 30 minutes
# [12] = human, plasma, intravenous, 60 mg/m^2, 60 mg/m^2, infusion 60 minutes
# [13] = human, plasma, intravenous, 80 mg/m^2, 80 mg/m^2, infusion 45 minutes
# [14] = human, plasma, intravenous, 80 mg/m^2, 80 mg/m^2, infusion 60 minutes
# [15] = human, plasma, intravenous, 100 mg/m^2, 100 mg/m^2, infusion 60 minutes
# [16] = human, plasma, intravenous, 120 mg/m^2, 120 mg/m^2, infusion 60 minutes
smiles,measurement,setting,value
Cn1c(CCCCCCC(=O)NO)nc2cc(N(CCCl)CCCl)ccc21 [tinostamustine],response,[1]; 1 patient with refractory HL treated with 120 m/m^2 over 6 cycles,achieved a CR
same,patients having a response from SD to CR,[1]; 10 patients with HL,70%
same,CBR,[2]; 27 patients with lymphoma,62%
same,ORR,[2]; 27 patients with lymphoma,40%
same,best response CR,[2]; 27 patients with lymphoma,11%
same,best response PR,[2]; 27 patients with lymphoma,30%
same,best response SD,[2]; 27 patients with lymphoma,22%
same,best response of PD,[2]; 27 patients with lymphoma,37%
same,ORR and CBR,[2]; LYM60 mg/m^2/30 min cohort,100%
same,best response complete response (CR),[3],7%
same,best response of PD,[3],41%
same,best response partial response (PR),[3],21%
same,clinical benefit rate (CBR),[3],45%
same,overall response rate (ORR),[3],28%
same,EC50 (dose required to reduce the cell count by 50%),[4],28.3 mg/m^2 and 28.3 (40%) mg/m^2
same,CBR,[5],42%
same,ORR,[5],11%
same,best response CR,[5],0 patients
same,best response PR,[5],11%
same,best response SD,[5],31%
same,best response of PD,[5],47%
same,EC50 (dose required to reduce the cell count by 50%),[6],55.5 mg/m^2 and 55.5 (72%) mg/m^2
same,EC50 (dose required to reduce the cell count by 50%),[7],49.1 mg/m^2 and 49.1 (70%) mg/m^2
same,dose linearity of PK,[8]; dose range 20-120 mg/m^2 over 60 minutes infusion time,linear
same,dose linearity of PK,"[8]; dose range 20 to 120 mg/m^2, infusion times of 30 to 60 minutes",dose-linear
same,AUC,[8]; [9],193 ng·h/mL
same,Cmax,[8]; [9],241 ng/mL
same,Tmax,[8]; [9],48 min
same,AUC,[8]; [10],932 ng·h/mL
same,Cmax,[8]; [10],1160 ng/mL
same,Tmax,[8]; [10],24 min
same,AUC,[8]; [11],627 ng·h/mL
same,Cmax,[8]; [11],1720 ng/mL
same,Tmax,[8]; [11],18 min
same,AUC,[8]; [12],592 ng·h/mL
same,Cmax,[8]; [12],640 ng/mL
same,Tmax,[8]; [12],60 min
same,AUC,[8]; [13],794 ng·h/mL
same,Cmax,[8]; [13],1280 ng/mL
same,Tmax,[8]; [13],24 min
same,AUC,[8]; [14],902 ng·h/mL
same,Cmax,[8]; [14],1060 ng/mL
same,Tmax,[8]; [14],48 min
same,AUC,[8]; [15],1660 ng·h/mL
same,Cmax,[8]; [15],1960 ng/mL
same,Tmax,[8]; [15],42 min
same,AUC,[8]; [16],1640 ng·h/mL
same,Cmax,[8]; [16],1770 ng/mL
same,Tmax,[8]; [16],48 min
same,half-life,"[8]; human, plasma, intravenous, population PK, two-compartmental model, 36 patients, read-out: B half-life (converted)",216 min
same,Vd,"[8]; human, plasma, intravenous, population PK, two-compartmental model, 36 patients, read-out: Central volume of distribution",20.6 L
same,half-life,"[8]; human, plasma, intravenous, population PK, two-compartmental model, 36 patients, read-out: α half-life",27 min
same,Peripheral volume of distribution,"[8]; population PK, two-compartmental model, 36 patients",11.5 L
same,time to maximum concentrations,[8]; shorter infusions,around 30 minutes
